Data taken from PMC10874727, “The dual GGDEF/EAL domain enzyme PA0285 is a Pseudomonas species housekeeping phosphodiesterase regulating early attachment and biofilm architecture” (The Journal of Biological Chemistry, 2024).

Target: T1, PA0285_317-760 (Pseudomonas aeruginosa, UniProt Q9I6K5)
T1 construct: gene PA0285; GGDEF/EAL tandem domains, residues 317-760 of 760; transmembrane and PAS domains absent; GST tag cleaved by thrombin; E. coli BL21(DE3); monomer (copies word: monomeric)
Assay: HDX-MS
Format: binding
Conditions: 2.5 mM GTP, 1 mM MgCl2, 1 mM MnCl2, pH 7.5, 25 °C; site: GGDEF domain; no diguanylate cyclase turnover

T1 sequence (Q9I6K5 entry or part of it): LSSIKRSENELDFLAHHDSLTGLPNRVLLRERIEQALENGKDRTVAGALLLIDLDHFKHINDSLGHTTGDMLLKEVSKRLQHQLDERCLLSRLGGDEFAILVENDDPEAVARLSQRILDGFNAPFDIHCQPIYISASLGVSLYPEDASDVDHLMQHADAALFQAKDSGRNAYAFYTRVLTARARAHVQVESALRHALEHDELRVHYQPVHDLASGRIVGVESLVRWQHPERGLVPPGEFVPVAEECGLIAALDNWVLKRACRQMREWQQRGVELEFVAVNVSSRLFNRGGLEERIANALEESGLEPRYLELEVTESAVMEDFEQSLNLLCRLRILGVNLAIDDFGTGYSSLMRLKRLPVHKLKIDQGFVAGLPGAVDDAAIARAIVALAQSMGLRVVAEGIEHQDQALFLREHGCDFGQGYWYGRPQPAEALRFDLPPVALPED

Nc1nc2c(ncn2[C@@H]2O[C@H](COP(=O)(O)OP(=O)(O)OP(=O)(O)O)[C@@H](O)[C@H]2O)c(=O)[nH]1 [GTP] was tested, and the HDX-MS was “the neighboring helices exhibited reduced HDX, substantiating GTP binding”.
